Results on 7 compounds are retold here after patent US5843916A, “Cyclic amp analogues, individually and in pairs, to inhibit neoplastic cell growth” (priority 1994, dated 1998).

In assay [1] the test system is disseminated neuroblastomas. The conditions noted are these: combined drug regimen; cited from earlier work.
Assay [2] concerns myc-K562. In words: Growth inhibition of leukemic cells (Table 12). In kind it is cell-based. The conditions noted are these: Homo sapiens.
The subject of assay [3] is Molt-4. In words: Growth inhibition of leukemic cells (Table 12). In kind it is cell-based, human. As to conditions: Homo sapiens, MOLT-4; read-out: Inhibition of Growth IC50, Molt-4.
In assay [4] the test system is breast (MCF-7) and colon (LS-174T) cancer cell lines. In words: Growth inhibition of breast and colon cancer cells (Table 1). In kind it is cell-based, human. The conditions noted are these: Homo sapiens. The method, then: The compounds of the present invention were added using 100X concentrated stock solutions. At desired times, cell counts in duplicate were performed on a Coulter counter after harvesting the cells with gentle trypsinization. […] Cell counts were performed on each of three or more separate experiments, and the average values are expressed as percent growth inhibition as compared with untreated control cells. | ^a The values of percentage growth inhibition were determined from th | doseresponse curve experiments. Each value represents an average value an | range (in parentheses) obtained from three or more separate experiments. | The cell counts in duplicate were performed at day 3 and day 4 after two | treatments (day 0 and day 2) with analogs (seeding on day -1).

Assay [5] has as its system K-562. In words: Growth inhibition of leukemic cells (Table 12). In kind it is cell-based. As to conditions: Homo sapiens, K562.
For assay [6], the system named is four leukemic cell lines (HL-60, K-562, myc-K562, Molt-4). In words: Growth inhibition of leukemic cell lines. In kind it is cell-based, human. As to conditions: leukemic cell lines.
Assay [7] deals with HL-60. In words: Growth inhibition of leukemic cells (Table 12). In kind it is cell-based. The conditions noted are these: Homo sapiens.
Assay [8] has as its system MCF-7ras breast cancer cell line. In words: Synergistic growth inhibition by analogue combinations (Table 2). In kind it is cell-based, human. As to conditions: footnote of Table 2. On the procedure: (§1) All breast cancer cell lines were grown in IMEM supplemented with 10% fetal bovine serum, HEPES 20 mM, penicillin-streptomycin, and extra glutamine. Colon carcinoma cell lines were grown in EMEM supplemented with 10% FBS, EMEM, NEAA, HEPES 20 mM, extra glutamine, and penicillin-streptomycin. The cells were grown at 37° C. in humidified incubators in an atmosphere of 5% CO2.
(§2) For cell growth experiments, 2-3×10^5 cells/60 mm dish were seeded, and 24 hours later (Day 0), the medium was removed, and fresh medium and the additives were added then and every 48 hours thereafter. The compounds of the present invention were added using 100X concentrated stock solutions. At desired times, cell counts in duplicate were performed on a Coulter counter after harvesting the cells with gentle trypsinization.
Synergism quotient was defined as the net growth inhibitory effect of the analogue combination divided by the sum of the net analogue effects on growth inhibition. A quotient of >1 indicates a synergistic effect, while a quotient of <1 indicates an antagonistic effect.
Synergism of growth inhibition was determined by
treatment of cells with C-6 analogues and C-8 analogues alone
and in combination at Day 0 and Day 2 and counting the cell
^a Data are expressed as percentage growth inhibition in reference to
the growth of untreated control cells and represent average values and
ranges (in parentheses) of duplicate cell counts on three or more separat
experiments. The values for percentage growth inhibition of each analogue
^b The synergism quotient was defined as previously described.

The subject of assay [9] is breast and colon cancer cells. In words: Effect on cell morphology (FIG. 2). The conditions noted are these: 100 μM; three to four days. In kind it is cell-based, human. The text has this:
The photographs were taken on Day 4, ×160.
Furthermore, the synergistic growth inhibitory effect of C-6 and C-8 analogue combinations was also reflected in the change in the cell morphology.

In assay [10] the test system is MCF-7. In words: Growth of MCF-7 cells (Tables 3, 11). In kind it is cell-based. As to conditions: Homo sapiens, MCF7, 72 h, Table 11; 8-Cl-cAMP 10 μM, 8-Cl-adenosine 5 μM, DBcAMP 500 μM; control 100. The method, then: as §1, §2
For assay [11], the system named is c-myc protein, Molt-4 leukemic cells. In words: Western blotting of c-myc protein (FIG. 9B). In kind it is cell-based, human. As to conditions: three days; 8-Cl-cAMP 5 μM, DBcAMP 1 mM, 8-Cl-adenosine 5 μM. The method, then: The cells were grown in suspension culture in RPMI 1640 medium supplemented with 10% fetal bovine serum, penicillin (50 U/ml), streptomycin (500 μg/mL), 10 mM HEPES buffer, and extra glutamine. […] Surface antigen analysis of HL-60 cells was performed by flow cytometry using a panel of monoclonal antibodies reactive with either myeloid cells or monocytic cells. Terminal deoxynucleotidyl transferase (TdT) was assayed by an immunoperoxidase method using a TdT fluorescence kit. Western blotting of c-myc protein was performed using c-myc antibody 15206D11 (Scripps Clinic and Research Foundation, LaJolla, Calif.).
M, marker proteins of known molecular weight. […] The resulting supernatants were used as cell lysates. […] ND=nondetectable.
(In general: Immunoblotting shows a protein as a band on a membrane.)

In assay [12] the test system is RI cAMP receptor protein, Molt-4 leukemic cells. In words: Photoaffinity labelling of RI cAMP receptor protein (FIG. 9A). Type of assay: cell-based, human. The conditions noted are these: three days; 8-Cl-cAMP 5 μM, DBcAMP 1 mM, 8-Cl-adenosine 5 μM.
The subject of assay [13] is LS-174T colon cancer line. In words: Growth and release from growth inhibition (FIG. 3). Type of assay: cell-based, human. As to conditions: 5 μM. On the procedure:
1×10^5 cells/60 mm dish were seeded, and 24 hours later (Day 0), the medium was removed and fresh medium and additives were added then and every 48 hours thereafter. […] The triplicate cell count for each experimental point never varied by more than 10%.

Assay [14] concerns LS-174T. In words: Cell cycle analysis by flow cytometry (Table 3). Type of assay: cell-based, human. The conditions noted are these: 5 μM; 3 days. On the procedure: DNA histograms were generated on FACS II by using the DNA intercalating dye propidium iodide as described by Braylan et al. in Cytometry 2: 337-343, 1982. The percentage of cells in each cycle phase was calculated by using a PDP-11/34 computer and software as described by Neckers et al., Mol. Cell. Biol. 6: 4244-4250, 1986.
Breast (MCF-7, MDA-MB-231) and colon (LS-174T) cancer cells in log
phase (untreated control) and 3 days after treatment with 8-C1-cAMP
(10 μM), N^6 -benzyl-cAMP (35 μM), and 8-Cl-adenosine (5
were analyzed for DNA content by flow cytometric analysis as described
below. Similar results were obtained with other breast and colon cancer
^a The paired numbers were derived from two separate experiments.

Assay [15] relates to p21 ras protein, MCF-7 cells. In words: Western blotting of p21 ras protein (Table 11, FIG. 7). In kind it is cell-based, human. The method, then: Western blotting of p21 protein was performed as described below. […] V is cell lysate from Ha-MuSV-transformed NIH3T3 clone 13-3B-4. M, marker proteins of known molecular weight.
Each lane contained 100 micrograms of protein for SDS-PAGE.
Cellular proteins present in cell extracts were separated by 12% SDS-PAGE and transferred to nitrocellulose sheets in transfer buffer (25 mM Tris, 192 mM glycine, 20% methanol, pH 7.4). Nitrocellulose sheets were washed and first incubated with 3% bovine serum albumin in NTE-NP40 (50 mM Tris-HCl, pH 7.5, 150 mM NaCl, 2 mM EDTA, 0.1% Nonidet P-40) for three hours at 37° C. and then sequentially incubated with medium containing p21 monoclonal antiserum Y13-259 directed against the Ha-MuSV-encoded p21 for sixteen hours at 4° C., rabbit anti-rat IgG for 2.5 hours in an ice water bath, and 5×10^5 cpm/ml ^125 I-protein A for one hour in an ice water bath. The nitrocellulose sheets were air dried and exposed to Kodak XAR film for 12-36 hours at -20° C. Comparison of the resulting autoradiograms with others in which normal rat serum was substituted for p21 monoclonal antibody permitted identification of p21. To provide a reference p21, cell lysates were prepared from NIH 3T3 clone 13-3B-4 that had been transfected with HaMuSV DNA.
The levels of p21 protein are expressed relative to the p21 level in the untreated control cells which is set equal to 1.0 O.D.

For assay [16], the system named is YAC lymphoma cell. As to conditions: mouse, in vivo; cited from earlier work.
In assay [17] the test system is breast and colon cancer lines (MCF-7, T-47D, ZR-75-1, MCF-7ras, MDA-MB-231, BT-20, HBL-100, LS-174T, WiDr, HT-29). As to conditions: millimolar concentrations; previously reported; cited from earlier work.
Setting [18] is: 72 h, 50 μM, day 3, average (range), read-out: % Growth Inhibition, Day 3.
The mark [19] stands for this setting: 96 h, 50 μM, day 4, average (range), read-out: % Growth Inhibition, Day 4.
[20] abbreviates: 50 micromolar, read-out: growth inhibition.

Where two headings read alike, the source gives them in different places.

Consider `COc1ccc(Cc2nccc3cc(OC)c(OC)cc23)cc1OC` [papaverine], for which the “clinical result” value in assay [1] is reported as “promising results”.
The IC50 is the concentration needed to halve the response being measured. A word on the inhibition: it is how much of the control response was suppressed. Consider `CNc1nc2c(N)ncnc2n1[C@@H]1O[C@@H]2COP(=O)(O)O[C@H]2[C@H]1O` [8-methylamino-cAMP], for which the concentration for half-maximal inhibition (IC50) in assay [2], in [3], in assay [5] and in assay [7] was 100 µM in each case. In addition, the inhibition at 50 µM was 14% in assay [4] (setting [18]), 15% in [4] (setting [19]) and at most 20% in assay [4] (setting [20]). Also, the “times less potent than 8-Cl-cAMP” value in [6] is given as 5-20 times. In assay [8], the “percentage growth inhibition of each analogue when added alone” value is reported as 10%.
For the compound `CSc1nc2c(N)ncnc2n1[C@@H]1O[C@@H]2COP(=O)(O)O[C@H]2[C@H]1O` [8-methylthio-cAMP], the IC50 in assay [2], in assay [3], in [5] and in assay [7] was 100 µM in each case. Also, the inhibition at 50 µM in assay [4] (setting [18]) is 46%; in [4] (setting [19]) it was 42%; in assay [4] (setting [20]), 40 to 75%. The cell morphology entry in [9] was “induced the morphological change”. Besides, the “times less potent than 8-Cl-cAMP” value in [6] is reported as 5-20 times.
For `Nc1ncnc2c1nc(Cl)n2[C@@H]1O[C@H](CO)[C@@H](O)[C@H]1O` [8-Cl-adenosine], in [10], the activity at 5 µM turned out to be 38%. Moreover, the “c-myc protein level” value in assay [11] is “not observed”. For the same compound, the “RI receptor protein level” value in assay [12] is reported as “not observed”. Moreover, in assay [13], the “cell growth after release from treatment” value is “did not resume their growth up to two weeks after the release from the treatment”; the “cell growth during treatment” value is “marked reduction in cell growth and eventually stopped replicating within three to four days”. The “cell cycle phase distribution” value in assay [14] is reported as “appreciable increase of the cell population in G1 phase with a marked reduction in S-phase”. The “p21 (Relative Level)” value in assay [15] (3 days, 8-Cl-cAMP 10 μM, 8-Cl-adenosine 5 μM, DBcAMP 500 μM, control = 1.0 O.D.) is listed as 1.0 ± 0.1. The “p21 level” value in [15] (three days) is listed as “did not appreciably affect the p21 level”.
With `O=C(Nc1ncnc2c1ncn2[C@@H]1O[C@@H]2COP(=O)(O)O[C@H]2[C@H]1O)c1ccccc1` [N^6 -benzoyl-cAMP], the IC50 in assay [2] is 50 µM; in assay [3], 40 µM; in [5], 45 µM; in [6] (Homo sapiens, range), 40 to 50 µM; in assay [7], 50 µM. Also, the inhibition at 50 µM in assay [4] (setting [18]) is 30%; in assay [4] (setting [19]), 28%. The “percentage growth inhibition of each analogue when added alone” value in assay [8] amounted to 10%.
Turning to cholera toxin, the “inhibition of YAC lymphoma cell proliferation” value in [16] was “almost complete inhibition of YAC lymphoma cell proliferation for up to four days”.
On to `CCCC(=O)Nc1ncnc2c1ncn2[C@@H]1O[C@@H]2COP(=O)(O)O[C@H]2[C@H]1O` [N^6 -butyryl-cAMP], for which the inhibition at 50 µM in assay [4] (setting [18]) and in [4] (setting [19]) was 0% each time. In addition, the “growth inhibition” value in assay [17] is on record as “growth inhibition only in the hormone-dependent breast cancer lines”.
